Here are results for six compounds from patent publication US20230295152A1 (SENDA BIOSCIENCES, INC., priority 2019, published 2023).

Some results are limits rather than exact numbers.

Data set [1] can be described thus: Plasma Protein Binding with Ultracentrifugation Method, rat. The format is in vitro ADME. The settings on record: for fraction unbound at 30 min, 1 μM: rat plasma, read-out: Rat plasma protein binding (% bound); for fraction unbound at 5.5 h, 1 μM: rat, plasma, read-out: Plasma Protein Binding PPB (r) % (converted). On the procedure: The frozen plasma (stored at −80° C.) was thawed in a 37° C. water bath, followed by centrifugation at 3,220 g for 10 minutes to remove clots. The supernatant was removed into a new tube as the spun plasma. The spun plasma was pre-warmed in a 37° C. water bath for 10 minutes. The stock solutions of test compounds were diluted to 200 μM in DMSO, and then spiked into the plasma. Duplicate samples were prepared. The final concentration of compound was 1.0 μM. The final concentration of organic solvent was 0.5%. Warfarin was used as positive control in the assay. 1.0 mL of the spiked plasma was transferred to a new balance ultracentrifuge tube. Samples were incubated at 37° C., 5% CO2 for 30 minutes. After incubation, the balance ultracentrifuge tubes were centrifuged at 600,000 g for 5.5 hours at 37° C. After centrifugation, 50 μL solution was removed from the center of the ultracentrifuge tubes as the post-ultracentrifugation samples, followed by the addition of 50 μL blank plasma and 400 μL quench solution (acetonitrile containing internal standards (IS, 100 nM Alprazolam, 500 nM Labetalol and 2 μM Ketoprofen)) to precipitate protein and release compounds. Samples were vortexed for 2 minutes, followed by centrifugation at 20,000 g for 15 minutes at room temperature. The supernatant was diluted with ultrapure water and then used for LC-MS/MS analysis. Stability samples was prepared by transferring 50 μL of the spiked plasma to 0.6 mL tubes and incubated at 37° C., 5% CO2 for 0.5 and 6 hours. After incubation, 50 μL PBS (100 mM, pH7.4) and 400 μL quench solution were added to the stability samples. And then stability samples were treated the same way as the post-ultracentrifugation samples. The supernatant was diluted with ultrapure water and then used for LC-MS/MS analysis. 0.5 hour time point samples were also used as no-spun controls. Time 0 samples were prepared by transferring 50 μL spiked plasma to 0.6 mL tubes containing 50 μL PBS, followed by the addition of 400 μL quench solution to precipitate protein and release compound. And then these samples were treated the same way as the post-ultracentrifugation samples. The supernatant was diluted with ultrapure water and then used for LC-MS/MS analysis.
Data Analysis: All calculations were carried out using Microsoft Excel. The concentrations of test compound in plasma samples and post-ultracentrifugation plasma was determined from peak areas. The percentages of test compound bound was calculated as follows: […]
“+++” indicates a % bound value less than 50, “++” indicates a % bound value between 50 and 75, and “+” indicates a % bound value above 75.

Data set [2] concerns the target T1, CYP3A4 (Homo sapiens, UniProt P08684).
T1 construct: from tissue; host or cells: human liver microsomes (HLM)
Nature of the data set: CYP Inhibition Assay in human liver microsomes, CYP3A4. The settings on record: pH 7.4. It counts as in vitro ADME. The procedure:
Stock solutions of test compounds were prepared in DMSO at the concentrations of 10 mM. Stock solution was diluted to 2 mM with acetonitrile. The final concentration of test compounds was 10 μM. For the stock solution preparation, if the positive control could not be well dissolved in the mixture of DMSO and acetonitrile (1:4) at the highest concentration, another mixture of acetonitrile and DMSO, the mixture of acetonitrile and H2O or DMSO will be used to dissolve the compound.
The substrate solutions are stored in a −20° C. freezer and warmed to room temperature prior to use.
Preparation of Phosphate Buffer (100 mmol/L, pH 7.4): To prepare the Solution A, 7.098 g of disodium hydrogen phosphate were weighed out and added into 500 mL of pure water, then sonicated to dissolve the content. To prepare the Solution B, 3.400 g of potassium dihydrogen phosphate were weighed out and added into 250 mL of pure water, then sonicated to dissolve the content. Solution A was placed on a stirrer and slowly Solution B was added into Solution A until the pH reached 7.4. Preparation of 10 mmol/L NADPH Solution: NADPH was dissolved at 8.334 mg/mL in phosphate buffer; the solution was freshly prepared prior to use.
The master solution was prepared according to Table 45. The incubation was carried out in 96 deep well plates. The following volumes were dispensed into each well of the incubation plate: 179 μL of the substrate and HLM mixture in phosphate buffer, 1 μL of the compound working solution, or vehicle (mixture of DMSO and acetonitrile (1:4)). The incubation plate was placed into the water bath and pre-warmed at 37° C. for 15 minutes before the reactions was started by the addition of 20 μL of 10 mmol/L NADPH solution in phosphate buffer. After the addition of NADPH, the incubation plate was incubated at 37° C. for corresponding time. The assay was performed in duplicate.
The reaction was quenched by the addition of 1.5 volume (300 μL) of cold acetonitrile containing 3% formic acid and internal standards (200 nM Labetalol, 200 nM Alprazolam and 200 nM tolbutamide). The plate was centrifuged at 3,220 g for 40 minutes. 100 μL of the supernatant was transferred to a new plate. The supernatant was diluted with 100 μL pure water. The samples were mixed well and analyzed using UPLC/MS/MS.
Data Analysis: The automatic peak integration areas are checked for all the samples. The Analyte Peak Area and Internal Standard Peak Area are exported into excel spreadsheet. The inhibition of each P450 enzyme in human liver microsomes is measured as the percentage decrease in the activity of marker metabolite formation compared to non-inhibited controls (=100% activity).
The percentage of remaining activity was calculated as follows: […]
A general note: Liver microsomes are a subcellular fraction often used to study metabolism.

One may read the inhibition as the share of the control response that was lost under treatment. Low readings indicate a response near the control, high ones a response far below the control.

T1 sequence (P08684 whole entry): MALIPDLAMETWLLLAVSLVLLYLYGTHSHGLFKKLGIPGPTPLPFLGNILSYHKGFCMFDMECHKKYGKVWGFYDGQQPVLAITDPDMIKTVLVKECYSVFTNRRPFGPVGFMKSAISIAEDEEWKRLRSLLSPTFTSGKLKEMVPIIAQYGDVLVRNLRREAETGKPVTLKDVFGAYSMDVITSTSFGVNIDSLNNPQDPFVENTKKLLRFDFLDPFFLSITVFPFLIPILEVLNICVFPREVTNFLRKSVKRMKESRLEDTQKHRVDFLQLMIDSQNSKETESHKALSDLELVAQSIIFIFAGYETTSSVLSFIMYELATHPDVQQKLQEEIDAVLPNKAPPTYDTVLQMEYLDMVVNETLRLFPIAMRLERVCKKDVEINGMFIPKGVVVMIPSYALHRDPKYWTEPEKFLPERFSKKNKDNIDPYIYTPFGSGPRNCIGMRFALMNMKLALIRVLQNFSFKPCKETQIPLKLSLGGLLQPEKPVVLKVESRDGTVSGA

`C[C@@H](CO)n1cnc2c(-c3cccc(F)c3)nc(-c3ccc(Cl)cc3)cc2c1=O` [Compound 7]: the fraction unbound at 30 min, 1 μM in data set [1] is less than 0.25. Take `CC(C)(O)Cn1cnc2c(-c3cccnc3)nc(-c3ccc(C(F)(F)F)nc3)cc2c1=O` [Compound 9]: in data set [1], the fraction unbound at 30 min, 1 μM was less than 0.25 and the fraction unbound at 5.5 h, 1 μM is 0.098. For `CC(C)(O)Cn1cnc2c(-c3cccnc3)nc(-c3ccc(Cl)cc3)cc2c1=O` [Compound 18], at 10 µM the inhibition in data set [2] was 35.2%. As for `C[C@H](n1cnc2c(-c3cnn(C)c3)nc(-c3ccc(Cl)cc3)cc2c1=O)C(C)(C)O` [Compound 30], the fraction unbound at 30 min, 1 μM in data set [1] was less than 0.25. The inhibition at 10 µM in data set [2] turned out to be 12.2%. `C[C@@H](CO)n1cnc2c(-c3cccnc3)nc(-c3ccc(C(F)(F)F)cn3)cc2c1=O` [Compound 46, (S)-3-(1-hydroxypropan-2-yl)-8-(pyridin-3-yl)-6-(5-(trifluoromethyl)pyridin-2-yl)pyrido[3,4-d]pyrimidin-4(3H)-one]: in data set [1], the fraction unbound at 30 min, 1 μM was less than 0.25 and the fraction unbound at 5.5 h, 1 μM is 0.102. This compound also displayed an inhibition at 10 µM in data set [2] of 2.26%. `O=c1c2cc(-c3ccc(Cl)cc3)nc(-c3cccnc3)c2ncn1[C@H]1COC[C@@H]1O` [Compound 125, 6-(4-chlorophenyl)-3-((3S,4R)-4-hydroxytetrahydrofuran-3-yl)-8-(pyridin-3-yl)pyrido[3,4-d]pyrimidin-4(3H)-one] yielded an inhibition at 10 µM in data set [2] of 23.8%.
